Assay results published in patent US20260284011A1, “COMPOUNDS FOR RESTORING SUSCEPTIBILITY TO BETA-LACTAM ANTIBIOTICS” (UNIVERSITY OF NOTRE DAME DU LAC, priority 2023, published 2026).
Like-named read-outs stand apart in the source and are kept apart here.

Experiments:
[1] = test system: ATCC 29213, MSSA, bla +; assay: MIC determination and potentiation assay (microdilution broth); format: cell-based, Staphylococcus aureus; settings: for MIC: Staphylococcus aureus
Description: (§1) MICs were determined by the microdilution broth method following the Clinical & Laboratory Standards Institute (CLSI) guidelines. […] Experiments were performed in triplicate in 96-well plates with 5×10^5 CFU·mL^−1 of bacteria. […] The MIC was the concentration for which bacterial growth was not observed.

[2] = test system: COL (NRS100), MRSA, SCCmec I, bla −; assay: as above; format: cell-based, Staphylococcus aureus; settings: for MIC: Staphylococcus aureus
Description: as §1

[3] = test system: HIP 133170 (VRS3a), MRSA/VRSA, SCCmec IV, bla +; assay: as above; format: cell-based, Staphylococcus aureus; settings: for MIC: Staphylococcus aureus
Description: as §1

[4] = test system: HIP07920 (NRS21), MRSA/VISA, SCCmec IV, bla +; assay: as above; format: cell-based, Staphylococcus aureus; settings: for MIC: Staphylococcus aureus, agent alone
Description: as §1

[5] = test system: HIP15178 (VRS5), MRSA/VRSA, SCCmec II, bla +; assay: as above; format: cell-based, Staphylococcus aureus; settings: for MIC: Staphylococcus aureus
Description: as §1

[6] = test system: LIM2 (NRS36), MRSA, SCCmec I, bla +; assay: as above; format: cell-based, Staphylococcus aureus; settings: for MIC: Staphylococcus aureus
Description: as §1

[7] = test system: NTCT 8325 (NRS77), MSSA, bla −; assay: as above; format: cell-based, Staphylococcus aureus; settings: for MIC: Staphylococcus aureus
Description: as §1

[8] = test system: HFH 29568, MRSA, USA300 clone, SCCmec IV, bla +; assay: as above; format: cell-based; settings: Staphylococcus aureus
Description: as §1

[9] = test system: M1712 (NRS127), MRSA, SCCmec II, bla +; assay: as above; format: cell-based; settings: Staphylococcus aureus
Description: as §1

[10] = test system: NY-315 (NRS715), MRSA, SCCmec II, bla +; assay: as above; format: cell-based; settings: Staphylococcus aureus
Description: as §1

[11] = test system: SR4035, MRSA, SCCmec IV, bla +; assay: as above; format: cell-based; settings: Staphylococcus aureus
Description: as §1

[12] = test system: TN-124 (NRS735), MRSA, SCCmec II, bla +; assay: as above; format: cell-based; settings: Staphylococcus aureus
Description: as §1

[13] = test system: NRS21; assay: Time-kill assay; format: cell-based, Staphylococcus aureus; settings: for antibacterial activity as single-drug treatment: FIG. 3, 24 h, OXA 32 mg·L^−1, 4 8 mg·L^−1
Description: (§2) Time-kill assay. MRSA strains (NRS21, NRS70, NRS382, NRS404, HFH 29568, and HFH 30495) were grown overnight on tryptic soy agar plate. Bacteria were diluted in Muller-Hinton broth containing 2% NaCl to […] CFU·mL^−1. […] For MEM and CPT, cation-adjusted Muller-Hinton broth without 2% NaCl was used. Aliquots were taken at 0, 3, 6, 9, 12, and 24 h and were diluted serially for bacterial counts. The assay was done in triplicate.

[14] = test system: various MRSA strains (NRS21, NRS70, NRS382, NRS404, HFH29568, HFH30495); assay: Time-kill assays (FIG. 6); format: cell-based, Staphylococcus aureus; settings: at 24 h
Description: as §2

[15] = test system: JE2, MRSA, SCCmec IV, bla −; assay: MIC determination and potentiation assay (microdilution broth); format: cell-based, Staphylococcus aureus; settings: for MIC: Staphylococcus aureus, MRSA, agent alone
Description: as §1

[16] = test system: strain FPR3757 (a USA300 strain); assay: Checkerboard assay; format: cell-based, Staphylococcus aureus; settings: 24-h incubation
Description: Synergy with β-Lactams and Time-Kill Assays. […] In this assay, the antibiotics are compared individually and in combination. The fractional inhibitory concentration (FIC) index is calculated. Synergy is defined as an FIC value ≤0.5, indifference as FIC >0.5 to ≤4, and antagonism as FIC >4.
Checkerboard assay. […] The final inoculum in each well was 5×10^5 CFU·mL^−1, and the result was read after 24-h incubation at 37° C. The fractional inhibitory concentration (FIC) index was calculated for each combination. An FIC index of ≤0.5 is considered synergistic. The experiment was done in triplicates.

[17] = test system: FPR3757 (USA300 clone); assay: Time-kill assay; format: cell-based, Staphylococcus aureus; settings: for antibacterial activity as single-drug treatment: FIG. 3, 24 h, MEM 2 mg·L^−1, 4 8 mg·L^−1
[18] = MSSA strain ATCC29213, 4 at 8 mg·L^−1
[19] = ATCC 29213, agent alone, read-out: MIC
[20] = COL (NRS100), agent alone, read-out: MIC
[21] = HIP 133170 (VRS3a), agent alone, read-out: MIC
[22] = HIP15178 (VRS5), agent alone, read-out: MIC
[23] = LIM2 (NRS36), agent alone, read-out: MIC
[24] = NTCT 8325 (NRS77), agent alone, read-out: MIC
[25] = strain NTCT8325, 4 at 8 mg·L^−1
[26] = HFH 29568, agent alone, read-out: MIC
[27] = M1712 (NRS127), agent alone, read-out: MIC
[28] = NY-315 (NRS715), agent alone, read-out: MIC
[29] = SR4035, agent alone, read-out: MIC

| Structure (SMILES) | MIC [3] | MIC [5] | MIC [6] | MIC [9] | MIC [11] | MIC [12] | antibacterial activity as single-drug treatment [13] | reduction in bacterial growth by itself [14] | MIC [1, 19] | MIC [2, 20] | MIC [3, 21] | MIC ([4]; HIP07920 (NRS21)) | MIC [5, 22] | MIC [15] | MIC [6, 23] | MIC [7, 24] | MIC [8, 26] | MIC [9, 27] | MIC [10, 28] | MIC [11, 29] | also measured |
| --- | --- | --- | --- | --- | --- | --- | --- | --- | --- | --- | --- | --- | --- | --- | --- | --- | --- | --- | --- | --- | --- |
| Cc1onc(-c2ccccc2)c1C(=O)N[C@@H]1C(=O)N2[C@@H]1SC(C)(C)[C@@H]2C(=O)O [OXA, oxacillin] | 256 µg/mL | 256 µg/mL | 64 µg/mL | 256 µg/mL | 128 µg/mL | 256 µg/mL | did not show antibacterial activity | Neither OXA, MEM, CPT, or compound 4 by itself showed reduction in bacterial growth |  |  |  |  |  |  |  |  |  |  |  |  | MIC [1]: 2 µg/mL; MIC [2]: 512 µg/mL; MIC of the β-lactam with 4 ([4]; HIP07920 (NRS21), Concentration of 4: 4 mg · L^−1): 0.03 µg/mL; MIC [7]: 0.25 µg/mL; MIC [8]: 64 µg/mL; MIC [10]: 256 µg/mL; log increase compared to initial bacterial count at 0 h ([13]; OXA at 32 mg·L^−1 by itself): 1.9 log |
| N#Cc1ccc2nc(SCB(O)O)n(Cc3ccc(C(F)(F)F)cc3C(F)(F)F)c2c1 [Compound 4, (((1-(2,4-bis(trifluoro-methyl)benzyl)-6-cyano-1H-benzo[d]imidazol-2-yl)thio)methyl)boronic acid] |  |  |  |  |  | 16 µg/mL | did not show antibacterial activity | Neither OXA, MEM, CPT, or compound 4 by itself showed reduction in bacterial growth | 16 µg/mL | 32 µg/mL | 16 µg/mL | 8 µg/mL | 32 µg/mL | 16 µg/mL | 16 µg/mL | 16 µg/mL | 16 µg/mL | 16 µg/mL | 16 µg/mL | 16 µg/mL | fold lowering of MEM MIC by 4 [1, 18]: 2 fold; fold lowering of OXA MIC by 4 [1, 18]: 4 fold; fold lowering of MEM MIC by 4 ([2]; COL, 4 at 8 mg·L^−1): 16 fold; fold reduction of OXA MIC by 4 ([2]; COL, 4 at 8 mg·L^−1): 2 fold; fold lowering of MEM MIC by 4 ([3]; vancomycin-resistant MRSA, Table 1 entry 19 (VRS3a)): 256 fold; fold lowering of FOX MIC by 4 ([4]; strain NRS21, 4 at 4 mg·L^−1): 2048 fold; fold reduction of OXA MIC by 4 ([4]; strain NRS21, 4 at 4 mg·L^−1): 4096 fold; fold lowering of MEM MIC by 4 ([5]; vancomycin-resistant MRSA, Table 1 entry 13 (VRS5)): 64 fold; fold lowering of MEM MIC by 4 ([15]; 4 at 8 mg·L^−1): 64 fold; fold reduction of OXA MIC by 4 ([15]; 4 at 8 mg·L^−1): 2 fold; fold lowering of MEM MIC by 4 ([6]; strain NRS36, 4 at 8 mg·L^−1): 512 fold; fold lowering of OXA MIC by 4 ([6]; strain NRS36, 4 at 8 mg·L^−1): 64 fold; effect of 4 on the OXA MIC [7, 25]: no effect; fold lowering of MEM MIC by 4 [7, 25]: 2 fold; FIC index, 4 with MEM [16]: 0.13; log increase in bacterial growth at 24 h ([13]; compound 4 at 8 mg·L^−1): 4.1 log; antibacterial activity as single-drug treatment [17]: did not show antibacterial activity |
| C[C@@H](O)[C@H]1C(=O)N2C(C(=O)O)=C(S[C@@H]3CN[C@H](C(=O)N(C)C)C3)[C@H](C)[C@H]12 [MEM, meropenem] |  |  |  |  |  | 8 µg/mL |  | Neither OXA, MEM, CPT, or compound 4 by itself showed reduction in bacterial growth | 0.13 µg/mL | 16 µg/mL | 16 µg/mL | 8 µg/mL | 8 µg/mL | 4 µg/mL | 8 µg/mL | 0.13 µg/mL | 16 µg/mL | 16 µg/mL | 32 µg/mL | 16 µg/mL | FIC index, 4 with MEM [16]: 0.13; antibacterial activity as single-drug treatment [17]: did not show antibacterial activity; activity of MEM by itself ([17]; throughout the 24-h assay): no activity |
| CO[C@@]1(NC(=O)Cc2cccs2)C(=O)N2C(C(=O)O)=C(COC(N)=O)CS[C@@H]21 [FOX, cefoxitin] | 128 µg/mL | 128 µg/mL | 128 µg/mL | 128 µg/mL | 128 µg/mL | 128 µg/mL |  |  | 4 µg/mL | 256 µg/mL |  | 64 µg/mL |  | 64 µg/mL |  | 4 µg/mL | 32 µg/mL |  | 256 µg/mL |  |  |
| CCO/N=C(\C(=O)N[C@@H]1C(=O)N2C(C(=O)[O-])=C(Sc3nc(-c4cc[n+](C)cc4)cs3)CS[C@H]12)c1nsc(N)n1 [CPT, ceftaroline] |  |  |  |  |  | 1 µg/mL |  | Neither OXA, MEM, CPT, or compound 4 by itself showed reduction in bacterial growth | 0.06 µg/mL | 1 µg/mL | 1 µg/mL | 0.5 µg/mL | 1 µg/mL | 1 µg/mL | 1 µg/mL | 0.25 µg/mL | 1 µg/mL | 1 µg/mL | 1 µg/mL | 1 µg/mL |  |
